Here are results for 4 molecules from patent US20100291605A1, “ASSAYS FOR S-ADENOSYLMETHIONINE-DEPENDENT […]” (WASHINGTON STATE UNIVERSITY RESEARCH FOUNDATION, priority 2006, published 2010).

For assay [1], the target named is PRMT1 (Rattus norvegicus, UniProt Q63009). Put plainly: enzyme-coupled continuous spectrophotometric methyltransferase assay (265 nm). The following applies: for Vmax, R3 compared with JMH1: peptide substrates of PRMT1, in words.
The target of assay [2] is adenine deaminase (Bacillus subtilis, UniProt P39761). Type of assay: biochemical. The settings on record: hypoxanthine 3.5 μM to 142 μM, in the presence of 13.3 μM adenine.

Where no end group is shown, it is not given here. acyl = not defined here

Chain of PRMT1 (Q63009 whole entry): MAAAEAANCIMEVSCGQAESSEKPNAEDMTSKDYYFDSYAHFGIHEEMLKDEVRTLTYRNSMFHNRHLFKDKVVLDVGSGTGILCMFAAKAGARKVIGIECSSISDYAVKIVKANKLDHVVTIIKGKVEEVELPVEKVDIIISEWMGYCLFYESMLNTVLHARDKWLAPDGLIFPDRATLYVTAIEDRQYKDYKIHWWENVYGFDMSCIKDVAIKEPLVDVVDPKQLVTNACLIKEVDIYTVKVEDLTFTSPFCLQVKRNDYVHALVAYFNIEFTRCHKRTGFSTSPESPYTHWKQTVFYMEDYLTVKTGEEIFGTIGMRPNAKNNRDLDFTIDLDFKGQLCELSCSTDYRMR
Chain of adenine deaminase (P39761 whole entry): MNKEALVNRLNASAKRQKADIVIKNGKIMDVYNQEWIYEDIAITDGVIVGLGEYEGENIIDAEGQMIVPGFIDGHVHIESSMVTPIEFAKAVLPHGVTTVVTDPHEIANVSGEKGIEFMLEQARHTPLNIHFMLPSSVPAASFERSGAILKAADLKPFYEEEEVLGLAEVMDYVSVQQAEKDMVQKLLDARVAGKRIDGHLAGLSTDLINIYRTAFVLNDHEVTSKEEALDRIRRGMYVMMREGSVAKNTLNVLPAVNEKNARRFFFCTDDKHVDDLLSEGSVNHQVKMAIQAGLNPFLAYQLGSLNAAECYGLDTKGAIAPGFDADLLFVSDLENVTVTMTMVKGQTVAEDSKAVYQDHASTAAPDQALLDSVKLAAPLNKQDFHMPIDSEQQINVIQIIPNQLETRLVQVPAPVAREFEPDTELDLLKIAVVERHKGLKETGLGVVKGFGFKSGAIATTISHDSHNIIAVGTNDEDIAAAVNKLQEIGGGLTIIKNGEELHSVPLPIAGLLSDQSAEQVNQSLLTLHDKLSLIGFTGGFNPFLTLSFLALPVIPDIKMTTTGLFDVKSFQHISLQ

As to “acylGGRGGFGGRGGFGGRGGFG (SEQ ID NO:3) [R3]”, in assay [1] (2 μM PRMT1, 211 μM R3), the “rate, continuous spectrophotometric assay” value is listed as 5.1±0.2 μM AdoHyc formed/min. The “Vmax, R3 compared with JMH1” value in assay [1] was “similar”.

Regarding “acylSGRGKGGKGLGKGGAK (SEQ ID NO:1) [H4 peptide]”, the maximum rate (Vmax) in assay [1] (peptide substrate of PRMT1) was 5.7 ± 0.2 µM/min.

In the case of “acylKGGFGGRGGFGGK (SEQ ID NO:2) (acyl-KGGFGGRGGFGGK; reading uncertain; also: N-terminal acyl group not given here, printed as acylKGGFGGRGGFGGK) [JMH1]”, the “Vmax, R3 compared with JMH1” value in assay [1] is on record as “similar”.

As to `O=c1[nH]cnc2nc[nH]c12` [hypoxanthine], the “inhibition of adenine deaminase” value in assay [2] was “did not inhibit”.

The term Vmax denotes the rate approached at saturating substrate.
